Results taken from publication PMC6479349, “Derivatives of 3-Aminopyrazine-2-carboxamides: Synthesis, Antimicrobial Evaluation, and in Vitro Cytotoxicity” (Molecules, 2019).
Values after ≈ are worked out from the molar mass of the structure shown. Values joined by “and” are separate entries in the source; they are usually repeats but may differ in a detail not shown here. Identical values can stand only once. Like-named read-outs stand apart in the source and are kept apart here.

Experiments:
tested bacterial strains = experiment: Antibacterial microdilution broth screening, strain not specified; settings: read-out: MIC against the tested strains (antibacterial)
[1] = tested on: Mycobacterium smegmatis DSM 43465; experiment: Antimycobacterial microdilution broth panel MIC (resazurin); type: cell-based
[2] = Lipophilicity by reverse phase HPLC (log k); settings: RP-HPLC C18, MeOH 70% / H2O 30%, 30 °C
Method: The mobile phase consisted of MeOH (HPLC grade, 70%) and H2O (HPLC-Milli-Q Grade, 30%). The flow rate was 1.0 mL/min, samples were injected in a volume of 20 µL, and the column temperature was 30 °C. Detection and monitoring wavelength were 210 nm and 270 nm, respectively. Retention times (Rt) were measured in minutes. The dead time of the system (Dt) was determined as the retention time of the KI methanolic solution. Capacity factors k for individual compounds were calculated according to the formula k = (Rt – Dt)/Dt. Capacity factor k was converted to log scale and (log k) and used as a measure of lipophilicity.

[3] = tested on: Trichophyton interdigitale CCM 8377; experiment: Antifungal microdilution broth MIC; settings: for MIC: Trichophyton interdigitale, CCM8377, 72 h, read-out: MIC72h TI
[4] = tested on: Mycobacterium tuberculosis H37Rv; experiment: Antimycobacterial microdilution broth MIC (Alamar Blue); type: cell-based
[5] = tested on: M. kansasii CNCTC My 235/80; experiment: as above; type: cell-based, Mycobacterium kansasii; settings: Mycobacterium kansasii
[6] = tested on: Staphylococcus aureus methicillin resistant CCM 4750; experiment: Antibacterial microdilution broth MIC
[7] = tested on: Staphylococcus epidermidis 112-2016; experiment: Antibacterial microdilution broth MIC
[8] = tested on: Staphylococcus aureus CCM 4223; experiment: Antibacterial microdilution broth MIC
[9] = In vitro cytotoxicity, CellTiter 96 Aqueous One; settings: human
[10] = tested on: Klebsiella pneumoniae 64-2016; experiment: Antibacterial microdilution broth MIC; settings: Klebsiella pneumoniae, 642016, 48 h, read-out: MIC Klebsiella pneumonia (standards)
[11] = tested on: Serratia marcescens 62-2016; experiment: Antibacterial microdilution broth MIC; settings: Serratia marcescens, 622016, 48 h, read-out: MIC Serratia marcescens (standards)
[12] = tested on: Escherichia coli CCM 3954; experiment: Antibacterial microdilution broth MIC; settings: CCM3954, 48 h, read-out: MIC Escherichia coli (standards)
[13] = tested on: Enterococcus faecalis CCM 4224; experiment: Antibacterial microdilution broth MIC; settings: CCM4224, 48 h, read-out: MIC Enterococcus faecalis (standards)
[14] = tested on: Pseudomonas aeruginosa CCM 3955; experiment: Antibacterial microdilution broth MIC; settings: CCM3955, 48 h, read-out: MIC Pseudomonas aeruginosa (standards)
[15] = tested on: Mycobacterium aurum DSM 43999; experiment: Antimycobacterial microdilution broth panel MIC (resazurin); type: cell-based; settings: Mycolicibacterium aurum, DSM43999
[16] = Mycolicibacterium smegmatis, DSM43465
[17] = Mycolicibacterium smegmatis, DSM43465, value in parentheses
[18] = M. tuberculosis H37Rv, value in parentheses
[19] = Mycobacterium tuberculosis, H37RV, M. tuberculosis H37Rv, value in parentheses
[20] = Mycobacterium tuberculosis, H37RV, pH 6.6, M. tuberculosis H37Rv, Middlebrook 7H9 pH 6.6
[21] = M. tuberculosis H37Rv, Middlebrook 7H9 pH 6.6

Structure (SMILES)	MIC [1, 16] [µg/mL]	MIC [1, 17] [µM]	log k [2]	MIC [4, 19] [µM]	MIC [4, 20] [µg/mL]	also measured
CCCCCCCNC(=O)c1nccnc1N [Compound 11, 3-Amino-N-heptylpyrazine-2-carboxamide]	62.5	264	0.813	212	50	MIC (tested bacterial strains): 250 µM (≈ 59.1 µg/mL); MIC ([1]; value in parentheses): 264.5 µM; MIC [3]: 500 µM (≈ 118 µg/mL); MIC [4, 18]: 211.6 µM; MIC [5]: 50 µg/mL and 212 µM
Nc1nccnc1C(=O)NCc1ccc(Cl)c(Cl)c1 [Compound 6, 3-Amino-N-(3,4-dichlorobenzyl)pyrazine-2-carboxamide]	> 500	> 1680	0.493	> 336	> 100	–
Nc1nccnc1C(=O)NCc1cccc(C(F)(F)F)c1 [Compound 7, 3-Amino-N-(3-(trifluoromethyl)benzyl)pyrazine-2-carboxamide]	250	844	0.282	169	50 to 100	antifungal activity against TI [3]: showed activity mainly against TI; MIC Mtb [4, 21]: 50 µg/mL (≈ 169 µM)
Nc1nccnc1C(=O)Nc1ccc(C(F)(F)F)cc1 [Compound 20, 3-Amino-N-(4-(trifluoromethyl)phenyl)pyrazine-2-carboxamide]	31.2	111	0.525	177	50	MIC ([6]; CCM4750|MRSA, read-out: MIC methicillin resistant S. aureus (MRSA)): 62.5 µM; MIC ([1]; value in parentheses): 110.7 µM; MIC ([7]; Staphylococcus epidermidis, 1122016, read-out: MIC S. epidermidis): 62.5 µM; MIC ([8]; CCM4223, read-out: MIC Staphylococcus aureus): 31.2 µM; IC50 at 24 h [9]: 41.4 µM
Cc1ccc(C)c(NC(=O)c2nccnc2N)c1 [Compound 15, 3-Amino-N-(2,5-dimethylphenyl)pyrazine-2-carboxamide]	> 500	> 2060	0.778	> 413	> 100	–
CNC(C)C1CCC(N)C(OC2C(N)CC(N)C(OC3OCC(C)(O)C(NC)C3O)C2O)O1 (stereo not shown) [gentamicin]	–	–	–	–	–	MIC [10]: > 8 µg/mL; MIC ([6]; CCM4750, 48 h, read-out: MIC Staphylococcus aureus methicillin resistant (standards)): 16 to 32 µg/mL; MIC ([7]; Staphylococcus epidermidis, 1122016, 48 h, read-out: MIC Staphylococcus epidermidis (standards)): > 8 µg/mL; MIC ([8]; CCM4223, 48 h, read-out: MIC Staphylococcus aureus (standards)): 1 µg/mL; MIC [11]: 2 µg/mL (≈ 4.19 µM); MIC [12]: 1 to 2 µg/mL (≈ 2.09 to 4.19 µM); MIC [13]: 8 µg/mL (≈ 16.8 µM); MIC [14]: 0.5 µg/mL (≈ 1.05 µM)
CO[C@H]1/C=C/O[C@@]2(C)Oc3c(C)c(O)c4c(O)c(c(/C=N/N5CCN(C)CC5)c(O)c4c3C2=O)NC(=O)/C(C)=C\C=C\[C@H](C)[C@H](O)[C@@H](C)[C@@H](O)[C@@H](C)[C@H](OC(C)=O)[C@@H]1C [RIF, rifampicin, reference compound]	12.5 to 25	–	–	–	–	MIC [15]: 0.78 to 1.56 µg/mL (≈ 0.948 to 1.9 µM)
Cc1ccc(CNC(=O)c2nccnc2N)cc1 [Compound 3, 3-Amino-N-(4-methylbenzyl)pyrazine-2-carboxamide]	> 500	> 2060	0.289	413	50 to 100	antifungal activity against TI [3]: showed activity mainly against TI; MIC Mtb [4, 21]: 100 µg/mL (≈ 413 µM)
Cc1ccccc1CNC(=O)c1nccnc1N [Compound 2, 3-Amino-N-(2-methylbenzyl)pyrazine-2-carboxamide]	> 500	> 2060	0.278	> 413	> 100	–
Nc1nccnc1C(=O)NCc1ccc(C(F)(F)F)cc1 [Compound 8, 3-Amino-N-(4-(trifluoromethyl)benzyl)pyrazine-2-carboxamide]	> 500	> 1690	0.308	169	50 to 100	MIC Mtb [4, 21]: 50 µg/mL (≈ 169 µM)
CCc1ccc(NC(=O)c2nccnc2N)cc1 [Compound 16, 3-Amino-N-(4-ethylphenyl)pyrazine-2-carboxamide]	> 500	> 2060	0.623	> 413	> 100	IC50 at 24 h [9]: > 250 µM
CCCCCNC(=O)c1nccnc1N [Compound 9, 3-Amino-N-pentylpyrazine-2-carboxamide]	> 500	> 2400	0.327	> 480	> 100	MIC [3]: 500 µM (≈ 104 µg/mL)
COc1ccc(CNC(=O)c2nccnc2N)cc1 [Compound 4, 3-Amino-N-(4-methoxybenzyl)pyrazine-2-carboxamide]	> 500	> 1940	0.026	387	50 to 100	antifungal activity against TI [3]: showed activity mainly against TI; MIC Mtb [4, 21]: 100 µg/mL (≈ 387 µM)
Nc1nccnc1C(=O)Nc1ccc(F)cc1F [Compound 18, 3-Amino-N-(2,4-difluorophenyl)pyrazine-2-carboxamide]	> 500	> 2000	0.422	> 400	> 100	–
CCCCCCCCNC(=O)c1nccnc1N [Compound 12, 3-Amino-N-octylpyrazine-2-carboxamide]	62.5	250	1.057	100	25	MIC (tested bacterial strains): 62.5 µM (≈ 15.6 µg/mL); MIC ([1]; value in parentheses): 249.7 µM; MIC [3]: 250 µM (≈ 62.6 µg/mL); MIC [4, 18]: 99.9 µM; MIC [5]: 25 µg/mL and 100 µM
COc1ccc(CNC(=O)c2nccnc2N)c(OC)c1 [Compound 5, 3-Amino-N-(2,4-dimethoxybenzyl)pyrazine-2-carboxamide]	> 500	> 1730	0.188	> 347	> 100	–
Nc1nccnc1C(=O)Nc1ccc(Cl)c(Cl)c1 [Compound 19, 3-Amino-N-(3,4-dichlorophenyl)pyrazine-2-carboxamide]	> 500	> 1770	0.778	177	50	–
NC(=O)c1cnccn1 [PZA, Pyrazinamide, reference compound]	> 100	–	–	–	100	–
CCCCCCNC(=O)c1nccnc1N [Compound 10, 3-Amino-N-hexylpyrazine-2-carboxamide]	250	1120	0.569	450	100	MIC (tested bacterial strains): 500 µM (≈ 111 µg/mL); MIC [3]: 250 µM (≈ 55.6 µg/mL); IC50 at 24 h [9]: 389 µM; MIC [4, 18]: 449.9 µM; MIC [5]: 100 µg/mL and 450 µM
Nc1nccnc1C(=O)NCc1ccccc1 [Compound 1, 3-Amino-N-benzylpyrazine-2-carboxamide]	> 500	> 2190	0.056	> 438	> 100	antifungal activity against TI [3]: showed activity mainly against TI
